For one data set, the system named is porcine liver scaffolds. The data set is described as follows: Sterilization effect on scaffolds according to culture time (DMEM + 10% FBS, Columbia blood agar). The protocol:
First, the porcine liver scaffolds prepared in Example 1 were divided into two groups: an experimental group in which the scaffolds were immersed in the slightly acidic electrolyzed water prepared in Example 2 to be sterilized for […], 60 minutes, 90 minutes, and 120 minutes, respectively; and a control group in which the scaffolds were treated with PBS, peracetic acid (PAA) solution (Sigma-Aldrich, St Louis, Mo., USA), and 70% ethanol solution (Daejung Chemicals and Metals, Seoul, Korea), instead of the slightly acidic electrolyzed water. The slightly acidic electrolyzed water was changed every 15 minutes to be the best fit for sterilization of the porcine liver scaffolds, and the sterilized porcine liver scaffolds were washed with PBS once.
The porcine liver scaffolds of the experimental group and the control group treated by the method described in the above section 3-1 were incubated in Dulbecco's Modified Eagle's Medium (DMEM; Invitrogen, Carlsbad, Calif., USA) supplemented with 10% fetal bovine serum (FBS, Hyclone, Logan, Utah, USA) at 37° C. and on Columbia blood agar medium (Fluka Chemie GmbH) for 96 hours and then checked periodically for signs of infection. In the event of infection, the discoloration and turbidity of medium increases, and the growth of cell colonies is observed on blood agar medium.
In Table 2, (−) represents that no symptoms of infection were observed; (+) represents that symptoms of infection were observed; (x) represents that symptoms of infection were observed before observation time; native liver, decellularized liver, and PBS-treated liver were used as positive controls; and medium without scaffolds was used as the negative control.

A short description of data set [1]: Glycosaminoglycan content, dimethyl methylene blue dye-binding assay (Blyscan kit). Further details: species or system porcine. Conditions: for content of glycosaminoglycans, % of that in untreated and decellularized scaffolds: relative to untreated and decellularized scaffolds; for content of glycosaminoglycans, % of that in untreated scaffolds: relative to untreated scaffolds. The protocol:
To evaluate the effects of the slightly acidic electrolyzed water of the present invention on the content of glycosaminoglycans, the content of glycosaminoglycans in decellularized liver (untreated scaffolds), scaffolds treated with PBS, and scaffolds treated with the slightly acidic electrolyzed water of the present invention were determined using a dimethyl methylene blue dye-binding assay kit (Blyscan kit; Biocolor Ltd) according to the manufacturer's instructions. First, 5 mg of lyophilized sample was homogenized and solubilized. A 100 μL aliquot from each sample lysate was added to 1 mL of dimethyl methylene blue solution and agitated on a shaker at 25° C. for 30 minutes. The resulting solutions were then centrifuged at 10,000×g for 10 minutes to collect the GAG dye complex, and the supernatants were discarded. The remaining pellet was suspended in 1 mL of the provided dissociation reagent, and the absorbance was measured at 655 nm. Chondroitin sulfate provided in the kit was used as a standard of glycosaminoglycans.

In data set [2] the test system is collagen in porcine liver scaffolds. The data set is described as follows: Collagen content, Sircol collagen dye-binding assay. Conditions: relative to native liver. The method, then:
To evaluate the effects of the slightly acidic electrolyzed water of the present invention on the content of collagen, the total collagen levels in native liver, decellularized scaffolds (untreated), scaffolds treated with PBS, PAA, or ethanol, and scaffolds treated with the slightly acidic electrolyzed water of the present invention were determined using a Sircol collagen dye-binding assay kit (Biocolor Ltd.) according to the manufacturer's instructions.
In more detail, lyophilized samples of native porcine liver slices, scaffolds decellularized by the method of Example 1, porcine liver scaffolds treated with PAA, PBS, ethanol, and slightly acidic electrolyzed water, respectively, were prepared. Then, total acid pepsin-soluble collagen was obtained after incubation in 0.5 M acetic acid containing 0.1 mg/ml pepsin. A 100 μL aliquot of acid neutralizing reagent was added to the acid-pepsin extract. Then, the extract was centrifuged after an overnight incubation at 4° C. Then, 1 mL Sircol dye reagent was added to the pellet and incubated at 25° C. for 30 minutes. After centrifugation, the pellet was washed with acid-salt wash reagent and suspended in 1 mL of alkaline reagent. Then, the absorbance was measured at 540 nm.

For the next data set, the system named is porcine skin fibroblasts. The data set is described as follows: Cytotoxicity test (MTT) with conditioned medium from sterilized scaffolds. It counts as cell-based. Conditions: conditioned medium from treated scaffolds. The protocol: Conditioned cell culture media were prepared from scaffolds treated with the slightly acidic electrolyzed water of the present invention. In brief, serum-free DMEM cell culture medium was incubated overnight with each SAEW-treated scaffold at a concentration of 0.2 g/ml media at 37° C. in a shaker at 70 rpm/min. Cell culture media without scaffolds were prepared by the same method as above to provide unconditioned controls. After incubation, the scaffolds were removed and the medium was filtered through a 0.4 μm filter to prepare culture medium containing soluble factors released from extracellular matrix.
The medium in which fibroblasts were incubated was aspirated, followed by the addition of conditioned or unconditioned culture medium containing 10% FBS and 1% penicillin-streptomycin (Gibco, Grand Island, N.Y., USA) to the well with attached fibroblasts, and the plate was incubated 37° C. in 5% CO2 atmosphere for 24 hours and 48 hours (the culture medium was changed every 24 hours).

Data set [3] relates to porcine fibroblasts. The experiment in a line: Ki-67 immunostaining of fibroblasts in conditioned medium. Conditions: conditioned medium from treated scaffolds. In kind it is cell-based. The protocol: Conditioned and control media were prepared by the method described in Example 6-1, and about 5000 porcine fibroblasts were cultured on gelatin-coated 4-well plates for 24 hours. Then, the medium was switched to conditioned or control medium. The medium was changed every 24 hours. The proliferation potential of the soluble factors eluted from the scaffolds was checked after incubation for 24 hour and 48 hours. Cells were immunostained using anti-Ki-67 antibody (Abcam, Cambridge, UK). Texas Red goat anti-rabbit IgG (Invitrogen) was used as a secondary antibody. Nuclei were counterstained using a mounting medium containing DAPI. The percentage of Ki-67 positive cells was calculated as the ratio of average positive Ki-67 cells relative to 250 DAPI-stained cells.

In data set [4] the test system is porcine fibroblasts. The experiment in a line: MTT cell attachment assay on sterilized scaffolds. Conditions: incubated for 3 hours to attach, viable for 16 hours. For orientation: Tetrazolium dyes change colour on reduction, which living cells bring about.
Description: Then, a 100 μL aliquot of DMEM in which porcine fibroblasts were suspended was added to each scaffold disc such that a total of about 50,000 fibroblasts were seeded on the plates. Then, the plate was incubated at 37° C. in 5% CO2 atmosphere for 3 hours to allow the fibroblasts to attach to scaffold substrates. The scaffold substrates were carefully transferred to another well such that the cells attached to the scaffold would remain undisturbed. Then, the plate was incubated at 37° C. in 5% CO2 atmosphere for 12 hours. Then, 10 μL of MTT solution (3-[4,5-dimethylthiazol-2yl]-2,5-diphenyltetrazolium bromide; 5 mg/ml, Sigma Aldrich) dissolved in PBS was added to each well and incubated at 37° C. in 5% CO2 atmosphere for 5 hours. Then, the media were removed and 200 μL of dimethyl sulfoxide (DMSO) was added to each well to dissolve the formazan by pipetting. After incubation for 10 minutes, 100 μL of solutions from the respective substrate wells were pipetted into another 96-well plate. Finally, the absorbance of the samples was determined using a spectrophotometer with a test wavelength of 570 nm and a reference wavelength of 630 nm.
For data set [5], the system named is DNA in porcine liver scaffolds. The experiment in a line: DNA content of treated scaffolds (removal of immunogenic antigens). Conditions: relative to untreated scaffolds. The protocol: First, lyophilized samples of native porcine liver slices, scaffolds decellularized by the method of Example 1, porcine liver scaffolds treated with 0.1% peracetic acid solution (PAA; Sigma-Aldrich, St Louis, Mo., USA), PBS, 70% ethanol (Daejung Chemicals and Metals, Seoul, Korea), and slightly acidic electrolyzed water were prepared. Then, DNA was extracted from the lyophilized samples using the DNeasy Blood and Tissue Kit (Qiagen, Hilden, Germany).

The values that follow come from patent US9232804B2, “Compositions and methods for sterilizing bioscaffolds” (KNU University-Industry Cooperation Foundation, priority 2012, dated 2016).

Take `CCO` [Ethanol, ethanol]: the symptoms of infection result is “−” in the data set on porcine liver scaffolds (Columbia blood agar, 6 hour); “−” in the data set on porcine liver scaffolds (Columbia blood agar, 24 hour); “−” in the data set on porcine liver scaffolds (Columbia blood agar, 36 hour); “−” in the data set with porcine liver scaffolds (Columbia blood agar, 48 hour); “+” with porcine liver scaffolds (Columbia blood agar, 60 hour); “−” in the data set with porcine liver scaffolds (DMEM + 10% FBS, 6 hour). For the same compound, the symptoms of infection result in the data set on porcine liver scaffolds (DMEM + 10% FBS, 24 hour) is reported as “−”; with porcine liver scaffolds (DMEM + 10% FBS, 36 hour), “−”; in the data set on porcine liver scaffolds (DMEM + 10% FBS, 48 hour), “−”; with porcine liver scaffolds (DMEM + 10% FBS, 60 hour), “−”; in the data set with porcine liver scaffolds (DMEM + 10% FBS, 72 hour), “+”. The “content of glycosaminoglycans, % of that in untreated and decellularized scaffolds” value in data set [1] is listed as 64.16±1.92%. Besides, the “content of glycosaminoglycans, % of that in untreated scaffolds” value in data set [1] is on record as 49.1±1.47%. The “content of collagen, % of that in native liver” value in data set [2] was 87.54±4.07%. The “proliferation rate of fibroblasts compared to unconditioned medium” value in the data set on porcine skin fibroblasts (incubation for 24 hours) turned out to be 109.22±5.58%; in the data set on porcine skin fibroblasts (incubation for 48 hours) it was 113.95±6.67%. In addition, the “percentage of Ki-67 positive cells compared to the control group” value in the data set on porcine fibroblasts [3] was “no significant difference”. Besides, the “seeded fibroblasts attached to scaffolds and remaining viable” value with porcine fibroblasts [4] was determined as 64.86±3.48%.

For the compound `CC(=O)OO` [PAA, peracetic acid], the symptoms of infection result is on record as “−” in the data set on porcine liver scaffolds (Columbia blood agar, 6 hour); “−” with porcine liver scaffolds (Columbia blood agar, 24 hour); “−” with porcine liver scaffolds (Columbia blood agar, 36 hour); “−” in the data set with porcine liver scaffolds (Columbia blood agar, 48 hour); “−” with porcine liver scaffolds (Columbia blood agar, 60 hour); “−” with porcine liver scaffolds (Columbia blood agar, 72 hour). In addition, the symptoms of infection entry is “−” with porcine liver scaffolds (Columbia blood agar, 96 hour); “−” with porcine liver scaffolds (DMEM + 10% FBS, 6 hour); “−” in the data set with porcine liver scaffolds (DMEM + 10% FBS, 24 hour); “−” in the data set with porcine liver scaffolds (DMEM + 10% FBS, 36 hour); “−” in the data set on porcine liver scaffolds (DMEM + 10% FBS, 48 hour); “−” in the data set with porcine liver scaffolds (DMEM + 10% FBS, 60 hour). The symptoms of infection result with porcine liver scaffolds (DMEM + 10% FBS, 72 hour) is “−”; with porcine liver scaffolds (DMEM + 10% FBS, 96 hour), “−”. Further, in data set [5], the “efficiency for removing the DNA content” value is listed as 93.13±2.82%. In addition, in data set [1], the “content of glycosaminoglycans, % of that in untreated and decellularized scaffolds” value worked out at 56±1.04%. Further, the “content of glycosaminoglycans, % of that in untreated scaffolds” value in data set [1] is on record as 43±0.80%. The “proliferation rate of fibroblasts compared to unconditioned medium” value turned out to be 119.18±5.6% in the data set on porcine skin fibroblasts (incubation for 24 hours) and 127.43±6.68% in the data set with porcine skin fibroblasts (incubation for 48 hours). For the same compound, the “percentage of Ki-67 positive cells compared to the control group” value in the data set with porcine fibroblasts [3] is listed as “no significant difference”. In addition, the “seeded fibroblasts attached to scaffolds and remaining viable” value in the data set with porcine fibroblasts [4] is 71.50±1.95%.
